Here are results for 1 substance from patent publication US9783785B2, “Screening methods for detection of susceptibility to leukemia and lymphomas” (priority 2010, dated 2017).

The subject of assay [1] is mononuclear cells from "normal"/sickle cell patients (controls). The assay can be described thus: cell surface phenotyping by flow cytometry, control cells. Format: cell-based, human. The conditions noted are these: compared to media only, days 1-4. Here is the method:
(§1) Subject to parental/patient consent, approximately 15 ml of blood was obtained from leukemic patients in remission, long-term survivors of acute lymphoblastic leukemia and normal volunteers. Additional “normal” control samples were collected from the first drawing of blood in sickle cell patients undergoing manual partial exchange transfusion, or samples of blood discarded by the blood bank from normal donors. Patient blood was placed into heparin (1000 USP u/ml). Peripheral blood mononuclear cells (PBMC) were isolated by density gradient centrifugation (400×g, 40 minutes, and 18° C.) with Ficoll Paque Plus (GE Healthcare, Amersham Biosciences; Uppsala, Sweden), followed by washing with phosphate-buffered saline. Plasma was also collected simultaneously and stored at −80° C. until use. […]
(§2) Frozen specimens were thawed in a 37° C. water bath with continuous agitation. […] These cells (frozen/thawed PBMC) were then assessed for viability by trypan blue dye exclusion, counted, and re-suspended in the medium for assay. […]
(§3) At time intervals of 24, 48, 72 and 96 hrs, cell surface phenotyping was performed by flow cytometry. […] Acquisition and Analysis was carried out on fluorescence activated cell sorting (FACS) BD FACS Canto II using FACSDiva v 6.1.2. […] Percentage of cells positive for CD10CD19, CD34CD19 and CD34CD117 were recorded.

Assay [2] concerns mononuclear leukocytes of long-term survivors of acute lymphoblastic leukemia (ALL). The assay can be described thus: cell surface phenotyping by flow cytometry, cells of ALL patients. Format: cell-based, human. The conditions noted are these: cells of leukemic patients in remission/long-term ALL survivors; compared to media only; days 1-4. Here is the method:
as §1, §2, §3
In general terms: A flow cytometer gives signals particle by particle.

As to Aflotoxin B1 [aflotoxin (AT)], the “development of cell surface phenotypes characteristic of ALL (CD10/CD19, CD34/CD19, CD34/CD117)” value in assay [1] and in assay [2] was “indiscriminately induced increased development” each time.
